In ChEMBL document CHEMBL1150551, “Novel angiotensin converting enzyme inhibitors containing -hydroxy ketomethylene dipeptide isosteres” (Bioorg Med Chem Lett, 1994) one finds IC50 data, which are given here for eight compounds.

The term IC50 denotes the midpoint of a concentration-inhibition curve. Low values mean greater potency, high ones weaker potency.

Some results are limits rather than exact numbers.

Experiment [1] has as its target T1, Angiotensin-converting enzyme (Oryctolagus cuniculus, UniProt P12822).
T1 sequence (P12822 whole entry): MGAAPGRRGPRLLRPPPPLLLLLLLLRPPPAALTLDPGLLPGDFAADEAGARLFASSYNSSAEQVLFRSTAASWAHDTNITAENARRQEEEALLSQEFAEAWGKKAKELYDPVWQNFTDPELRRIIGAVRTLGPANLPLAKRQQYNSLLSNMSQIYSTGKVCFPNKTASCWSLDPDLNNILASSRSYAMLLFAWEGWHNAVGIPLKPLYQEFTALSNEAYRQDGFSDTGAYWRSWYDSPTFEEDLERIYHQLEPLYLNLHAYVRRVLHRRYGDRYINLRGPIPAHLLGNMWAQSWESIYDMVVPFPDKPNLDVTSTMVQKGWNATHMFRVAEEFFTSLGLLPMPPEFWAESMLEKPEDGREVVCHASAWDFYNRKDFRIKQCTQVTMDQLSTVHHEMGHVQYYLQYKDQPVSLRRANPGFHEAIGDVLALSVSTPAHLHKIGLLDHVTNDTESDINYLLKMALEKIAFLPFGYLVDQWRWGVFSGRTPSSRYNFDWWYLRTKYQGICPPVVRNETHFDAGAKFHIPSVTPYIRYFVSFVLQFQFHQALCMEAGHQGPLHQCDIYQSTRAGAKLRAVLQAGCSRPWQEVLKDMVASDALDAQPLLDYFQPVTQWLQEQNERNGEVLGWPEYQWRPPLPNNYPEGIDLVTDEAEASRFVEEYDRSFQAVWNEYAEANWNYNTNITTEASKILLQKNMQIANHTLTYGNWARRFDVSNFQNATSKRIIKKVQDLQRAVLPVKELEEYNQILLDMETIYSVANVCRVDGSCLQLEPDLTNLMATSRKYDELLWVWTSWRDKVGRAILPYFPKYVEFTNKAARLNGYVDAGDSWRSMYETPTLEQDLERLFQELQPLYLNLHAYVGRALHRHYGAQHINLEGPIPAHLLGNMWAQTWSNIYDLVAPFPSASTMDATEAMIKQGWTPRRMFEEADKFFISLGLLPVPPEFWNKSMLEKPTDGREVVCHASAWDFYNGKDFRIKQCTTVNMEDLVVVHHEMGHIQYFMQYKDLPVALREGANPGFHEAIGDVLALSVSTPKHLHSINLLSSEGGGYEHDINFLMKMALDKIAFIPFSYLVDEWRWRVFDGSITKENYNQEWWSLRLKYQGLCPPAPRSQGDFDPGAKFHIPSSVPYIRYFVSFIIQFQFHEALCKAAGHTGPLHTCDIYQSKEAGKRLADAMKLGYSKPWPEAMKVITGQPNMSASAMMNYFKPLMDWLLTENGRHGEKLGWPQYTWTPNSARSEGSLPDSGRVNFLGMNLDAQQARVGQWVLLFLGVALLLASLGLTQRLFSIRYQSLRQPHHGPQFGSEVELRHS
Description: Inhibitory concentration against angiotensin converting enzyme (ACE); No activity in experimental concentration range.

The target in experiment [2] is T1, Angiotensin-converting enzyme. The experiment in a line: Inhibitory concentration against angiotensin converting enzyme (ACE).

For the compound `O=C(N[C@@H](Cc1ccccc1)C1=NO[C@@H](C(=O)N2CCC[C@H]2C(=O)O)C1)c1ccccc1`, the concentration for half-maximal inhibition (IC50) entry in experiment [1] is reported as “Not Active”.
`O=C(N[C@@H](Cc1ccccc1)C(=O)C[C@@H](O)C(=O)N1c2ccccc2C[C@H]1C(=O)O)c1ccccc1`: half-maximal inhibition in experiment [2] (IC50) was put at 0.09 µM.
Same read-out and setting: the same measure for `O=C(N[C@@H](Cc1ccccc1)C(=O)C[C@@H](O)C(=O)N1CCC[C@H]1C(=O)O)c1ccccc1`: 5 µM.
On the same count and under the same terms, the same measure for `O=C(N[C@@H](Cc1ccccc1)C(=O)C[C@H](O)C(=O)N1c2ccccc2C[C@H]1C(=O)O)c1ccccc1`: 5 µM; for `O=C(N[C@@H](Cc1ccccc1)C(=O)C[C@H](O)C(=O)N1CCC[C@H]1C(=O)O)c1ccccc1`: 100 µM; for `O=C(N[C@@H](Cc1ccccc1)C1=NO[C@@H](C(=O)N2c3ccccc3C[C@H]2C(=O)O)C1)c1ccccc1`: over 1000 µM.
As for `O=C(N[C@@H](Cc1ccccc1)C1=NO[C@H](C(=O)N2CCC[C@H]2C(=O)O)C1)c1ccccc1`, the half-inhibitory concentration (IC50) entry in experiment [1] is “Not Active”.
The same measure, in the same setting: the result for `O=C(N[C@@H](Cc1ccccc1)C1=NO[C@H](C(=O)N2c3ccccc3C[C@H]2C(=O)O)C1)c1ccccc1` reads “Not Active”.
